Results published in a melting point compilation (Tetko et al.; mined from patent text by program, amines drawn as free bases though some values may be those of a salt).

Compound	melting point [°C]
Cc1ccc(-n2nc(C(C)(C)C)cc2NC(=O)Nc2ccc(OCCCc3ccncc3)c3ccccc23)cc1	205 to 207
CC(C)(C)c1ccc(CCCCC(O)CC2CCCC2)cc1NC(=O)CC1c2ccccc2Oc2ccccc21 (stereo unspecified)	132 to 133
C=Cn1cc(C(=O)OCC)c(=O)c2cc(F)c(N3CCNCC3)cc21	208 to 210
CCCS(=O)(=O)Cc1cccc(-c2nc(=O)c3ccccc3s2)n1	177 to 179
CN1C(=O)N(c2cc(Cl)nc(Cl)c2)C(=O)[C@]12CNC[C@H]2c1ccc(C#N)cc1 (relative stereo)	202
O=C(NC(=O)c1cccc(C(F)(F)F)c1)NC1CN2CCC1CC2 (stereo unspecified)	197 to 200
O=C(O)c1cn(CC(F)(F)F)c2c(F)c(F)c(F)cc2c1=O	205 to 207
CC(C)(C)OC(=O)[C@@H]1CC[C@H](NC(=O)CNC(=O)c2ccc(OCc3ccccc3)c(C(C)(C)C)c2)[C@H](C(=O)O)C1	126 to 132
Cc1c(-c2cccnn2)ssc1=S	193
COc1ccc(-c2ccc(N3C[C@H](CNC(C)=O)OC3=O)cc2F)ccc1=O	227 to 228
O=C1CCc2cccc3c2N1C(=O)CC3	136 to 140
CCCc1c(O)ccc2c(C)c(CC(=O)OC)c(=O)oc12	160 to 162
CCC(C(=O)O)c1cccc(Oc2ccccc2Cl)c1O (stereo unspecified)	143 to 145
N#Cc1ccc(NC(=O)c2cccc(OCc3cccc(F)c3F)c2)cc1	149 to 150
Cn1nc(-c2cc(S)c(Cl)cc2F)c(Cl)c1C(F)(F)F	56 to 58
CCOC(=O)C1=C(C)NC(=S)N(C(=O)OCC)C1c1ccccc1OC (stereo unspecified)	117 to 118
COc1ccccc1-n1c(=O)[nH]c2c(C(N)=O)nc(Nc3ccc(O)cc3)nc21	223 to 224
CC(C)COC(=O)Nc1cccc(-c2ccnc3c(-c4cccs4)cnn23)c1	140 to 141
CC1=CC(OC(=O)c2nc[nH]c2C)C(O)C(C)(C)CC1=O (stereo unspecified)	99 to 101
COC(=O)c1ccc2[nH]c(=O)oc(=O)c2c1	275 to 278
O=CNc1cccc(C(=O)Nc2ccc(-c3ccccc3)cc2)c1O	190
COc1ccc(-c2coc3ccc(-c4nnc(SCc5cccc(OC)c5)o4)cc23)cc1	118 to 119
Cc1sc(N)c(C(=O)c2ccc(Cl)cc2)c1CN1CCN(c2cccc(F)c2)CC1	140 to 141
CCCCCCCCCCCC(=O)OC1CC(c2ccccc2)N(O)C(c2ccccc2)C1 (stereo unspecified)	89 to 90

Compound	melting point [°C]
CCOC(=O)c1cc2c(Cl)cc(Cl)cc2[nH]1	180
O=C1NC(=O)C(CCCCc2ccc(O)cc2)O1 (stereo unspecified)	151 to 152
O=C(Nc1cc(Cl)c([N+](=O)[O-])cc1O)c1ccc(Cl)c(Cl)c1	263 to 265
CCOC(=O)C1C(=O)CC(C)(O)C(C(=O)OCC)C1c1ccc2c(C)c(C)oc2c1 (stereo unspecified)	183 to 185
COC(=O)c1ncnn1C1OC(COC(=O)c2ccccc2)C(OC(=O)c2ccccc2)C1OC(=O)c1ccccc1 (stereo unspecified)	122 to 124
C=CCOc1cc(C(=O)O)cc(N)c1C(=O)c1ccccc1	206 to 208
CCOC(=O)Cn1nnnc1C(=O)OCC	26 to 29.5
CC(C)(CO)NS(=O)(=O)c1cccc(NC(=O)c2cnn3c(C(F)(F)F)cc(-c4ccc(OC(F)(F)F)cc4)nc23)c1	212
CCN(C(=O)c1ccc(C(=O)c2cnc3ccccn23)cc1)c1ccccc1	141 to 145
CC(C)CCc1ccc(C(=S)CC#N)cc1	62 to 63
O=C(O)Cc1cccc(-c2ccccc2OC2OC(CO)C(O)C(O)C2O)c1 (stereo unspecified)	85 to 86
CC1(C)CC(=O)c2c(Sc3ccccc3)sc(C(=O)N3CCCC3)c2C1	140
CCSc1cc(C(C)(C)C)c(O)c(C(C)(C)C)c1	33
CCOC(=O)c1ccc(-n2nc(C(F)(F)F)cc2-c2ccc(S(C)(=O)=O)cc2)cc1	159 to 161
CCN(CC)CCOc1ccc(-c2sc3ccccc3c2C(=O)c2cc(C)cc(C)c2)cc1	138 to 142
Cc1ccc2c3c(ccc2n1)OCC(CN1CCC(C#N)(c2ccccc2)CC1)O3 (stereo unspecified)	185 to 187
CC(=O)Nc1ccc(Nc2ccccc2)cc1	169 to 171
O=C(Cc1cccc(Br)c1)Nc1cccc(C(=O)NO)c1	184 to 186
C=C(C)c1ccc(C2C(C(=O)c3ccc(C(C)C)cc3)=C(O)C(=O)N2c2ccc(C)nn2)cc1 (stereo unspecified)	274
CC(C)(C)OC(=O)CC(=O)CO[C@H]1NC(=O)[C@@H]1NC(=O)c1ccccc1	142
CCCSc1nc(Br)c(Br)n1Cc1cc2c(cc1Cl)OCO2	116
CCOC1C(=O)NC(=O)N1CCCc1ccccc1 (stereo unspecified)	64
Cc1ccc2c(c1C)OC(C(F)(F)F)C(C(=O)O)=C2 (stereo unspecified)	245 to 247
O=C(Nc1cccc2c1C(=O)c1c-2n[nH]c1-c1ccc(C(=O)N2CCC(N3CCCC3)CC2)s1)NN1CCOCC1	228

Compound	melting point [°C]
O=c1nc(-c2cccc(CN3CCN(c4ccc(F)cc4)CC3)n2)sc2ccccc12	156 to 157
O=C(Oc1ccc([N+](=O)[O-])cc1)C(O)C(O)C(=O)Oc1ccc([N+](=O)[O-])cc1 (stereo unspecified)	163 to 164
CCCCCCCCCCc1nc(N(C)C)nc(C)c1O	71 to 72
Clc1ccc(C2(CBr)OCC(COc3ccc(Cl)c4ccccc34)O2)c(Cl)c1 (stereo unspecified)	123
Cc1cc(C(F)(F)F)n2nc(NS(=O)(=O)c3ccccc3Cl)nc2n1	203 to 204
O=C(O)C=CC(=O)NCCCCCCCCCCCCCCCCCCCC(=O)O	146 to 148
FC(F)(F)c1ccc2c(c1)N=Cc1ccccc1O2	86 to 88
O=C(c1ccnc(F)c1)N1CCC[C@H](c2noc(-c3ccc(F)cc3)n2)C1	117 to 119
Nc1cc(Cl)nc(SC/C=C/C(=O)N2CCCCC2)n1	159 to 163
CC(Oc1ccc(Oc2ccc(C(F)(F)F)cn2)cc1)C(=O)OCCOCc1ccccc1 (stereo unspecified)	44 to 47
CCOc1ccccc1OC(Cc1ccccc1)C1=NCCN1 (stereo unspecified)	95 to 97
CC1(C)CCC(C)(C)c2cc(-c3ccc(O)cc3)ccc21	137 to 140
CC(C)C[C@H](NC(=O)c1ccccc1)C(=O)NC#N	136 to 137
Nc1sc2c(c1C(=O)c1ccc3ccccc3c1)CCCC2	95 to 97
COc1cc(Br)cc(C23CC4CC(CC(C4)C2)C3)c1O	157 to 159
CCOC=C(C(=O)CCl)C(=O)OCC	86.5
O=C(O)COc1ccc2c(-c3ccc(F)cc3)noc2c1Cl	233 to 237
Cn1c(=O)n(Cc2ccccc2)c(=O)c2cc(I)ccc21	149 to 150
COc1cc2c(cc1OC)CC(N(C)CCCN1CCc3cc(OC)c(OC)cc3C(O)C1=O)CC2 (stereo unspecified)	141 to 143
CC(C)(C)c1cc(NC(=O)C2CCCCC2C(=O)O)cc(C(C)(C)C)c1O (stereo unspecified)	247 to 252
CCCNC(=O)c1cccc(C2(c3ccc(OC(F)F)cc3)N=C(N)N(C)C2=O)c1 (stereo unspecified)	93 to 96
CCN(c1cccc2cc(-c3ncc(COc4ccc(C(=O)OC)cc4)s3)[nH]c12)S(=O)(=O)c1cccs1	191
CC(Oc1ncn(-c2ccc(Cl)cc2Cl)n1)C(=O)O (stereo unspecified)	151 to 153
COc1ccc(C(=O)Nc2nnn[nH]2)c(OC(C)C)c1	212 to 213

Compound	melting point [°C]
ON=Cc1cn2c(cnc3ccccc32)n1	243 to 245
CC(=O)Oc1ccc(CCC2CC(C)(OC(C)=O)CC(=O)O2)cc1 (stereo unspecified)	72 to 75
COc1ccc(NC(=O)Nc2ccc(Cl)c(Cl)c2)cc1NC(=S)Nc1cc(Cl)cc(Cl)c1	202
O=C1CCCc2cc(Sc3cccc(F)c3)cc(F)c21	126 to 127
O=C(O)CCc1cnoc1-c1cc(Cl)c(Cl)s1	142 to 143
CCOc1cc(-c2cc(C(F)(F)F)n3ncc(C(=O)Nc4cc(S(=O)(=O)NC(C)(C)CO)sc4Cl)c3n2)ccc1C(F)(F)F	234
NC1CN(c2c(F)cc3c(=O)c(C(=O)O)cn(C4CC4)c3c2F)CC12OCCO2 (stereo unspecified)	224 to 226
NC(=O)[C@H]1CCCN2CC[C@@H]3c4cc(Cl)ccc4N[C@@H]3[C@H]12 (racemic)	270
CC(ON1C(C)(C)CC2(CC1(C)C)OCC(C)(C)CO2)c1ccc(C(=O)c2ccccc2)cc1 (stereo unspecified)	104 to 117
CN1CCN(c2cccc3c2C[C@H](NC(=O)c2ccc(C(=O)C(F)(F)F)cc2)CC3)CC1	91 to 93
Cn1cc(C(=O)O)c(=O)c2c3cc(N4CCCC(C)(C)C4)c(F)cc3ncc21	292 to 295
Cn1c(C(=O)N(Cc2cc(C(F)(F)F)cc(C(F)(F)F)c2)Cc2cc(C(F)(F)F)cc(C(F)(F)F)c2)c(-c2ccc(F)cc2)c2cccnc2c1=O	252 to 254
CC(C(=O)CCc1ccc(OC(F)(F)F)cc1)n1cncn1 (stereo unspecified)	58
CC(=NO)C(C)(C)NOCCNC(C)(C)C(CCN1C(=O)c2ccccc2C1=O)=NO	74 to 75
CCOC(=O)CNC(=O)c1cn2nc(NCCCN3CCC(OC(c4ccccc4)c4ccccc4)CC3)ccc2n1	172 to 174
CNC(=O)/C(=N/OC)c1ccccc1COc1ccc(-c2ccccc2)cc1	136 to 137
Cc1ccc(-c2ccc(-c3nnn(CCCCCCc4cccnc4)n3)cc2)cc1C	63 to 64
CC(=O)Oc1ccccc1-c1[nH]c2ccc(Cl)cc2c1-c1ccc(S(C)(=O)=O)cc1	238 to 240
NC(=O)NC[C@@H]1CCCc2cc(S(=O)(=O)c3cccc(F)c3)ccc21	155 to 156
CN1C(=O)C2(COc3cc4c(cc32)OCCO4)c2c(C#N)cccc21 (stereo unspecified)	196 to 197
CC(=O)NCc1ccc(C(C)Cl)cc1 (stereo unspecified)	58 to 62
COc1cc(NC(=O)C(C#N)=CNc2ccc(Br)c(OC)c2)c(Cl)cc1Cl	> 250
COc1ccc(NC(=O)c2ccc([N+](=O)[O-])c(C)c2)cc1	168 to 169
COc1cccc2c(=O)[nH]c(-c3ccccc3)cc12	227 to 231
